From patent US20190183922A1, “NOVEL ACTIVE IMMUNOMODULATORY AGENT AND COMPOSITION CONTAINING SAME” (UNIVERSITE CLERMONT AUVERGNE, priority 2016, published 2019)
“And” between values parts separate entries of the source, which are not always exact repeats. Equal values may be shown once.

Test system: co-culture of human dermal endothelial cells (HMVECs) and normal human dermal fibroblasts (NHDFs)
Assay: Formation of pseudotubes in an HMVEC+NHDF co-culture (anti-vWF immunolabelling, image analysis)
Type: cell-based
Protocol: The effects of the high-molecular-weight sulphated polysaccharide (HMWP) on the formation of pseudotubes was studied in a co-culture of human dermal endothelial cells (HMVECs) and normal human dermal fibroblasts (NHDFs), in basal condition or stimulated by VEGF (analysis by immunolabelling in situ).
The HMVEC and NHDF cells in co-culture were seeded in 96-well plates and cultured for 24 hours in culture medium.
The culture medium used is as follows: • EBM-2 (Endothelial cell basal medium 2) supplemented with 5% foetal calf serum (FCS), rhEGF, rhFGF, R3 IGF-1, hydrocortisone, vitamin C, gentamycin, • DMEM supplemented with 2 mM L-glutamine, 50 U/ml penicillin, 50 μg/ml streptomycin and 10% FCS.
The medium was then replaced with test medium containing or not containing (control) the compound to be tested and/or the VEGF inductor reference tested at 100 ng/ml; the compound was tested simultaneously in basal and stimulated condition (in the absence and in the presence of VEGF).
The test medium used was as follows: • EBM-2 (Endothelial cell basal medium 2) supplemented with rhEGF, rhFGF, R3 IGF-1, hydrocortisone, vitamin C, gentamycin, • DMEM supplemented with 2 mM L-glutamine, 50 U/ml penicillin, 50 μg/ml streptomycin and 1% FCS.
The cells were then incubated for 7 days, repeating the treatment after incubating for 72 hours. All the experimental conditions were produced in triplicate (n=3).
After incubation, the culture medium was removed and the cells were rinsed, fixed and permeabilized. The cells were then labelled with anti-VWF (Von Willebrand Factor) primary antibody. […] Simultaneously, the cell nuclei were coloured with Hoechst 33258 (bis-benzimide).
The formation of the pseudotubes was observed using a NIKON Diaphot 300 microscope (×4 objective lens). The digital images (1 photo per well) were then recorded with a NIKON DS-Ri1 camera and the NIS-Elements 4.13.04 software.
The labelling was quantified by measuring the entire surface of the pseudotubes using ImageJ software.
The formation of pseudotubes in the co-culture of endothelial cells (HMVECs) and dermal fibroblasts (NHDFs) after incubating for 7 days was measured by image analysis following immunolabelling with an anti-vWF antibody, the vWF being specifically expressed by the HMVEC cells.
The stimulation percentage is calculated according to the following formula: […]
The inhibition percentage is calculated according to the following formula: […]

[1] = VEGF inductor reference 100 ng/ml, 7 days

With VEGF the “% Control” value [1] was 1759%, the “% Stimulation” value [1] was 1659% and the “Surface of the pseudotubes” value (VEGF inductor reference 100 ng/ml, 7 days, individual wells) was 2.15 mm^2 and 2.52 mm^2 and 1.84 mm^2. For the same substance, the “Average Surface” value (VEGF inductor reference 100 ng/ml, 7 days, n=3) was 2.17 mm^2 and the “Organization of the endothelial cells into pseudotubes” value (reference VEGF 100 ng/ml) was “clearly led to an organization of the endothelial cells into pseudotubes”.
